In patent US12715849B2, “Herbicidal tetrazole compounds” (SYNGENTA CROP PROTECTION AG, priority 2020, dated 2026):

Key:
Assay in all cases: Glasshouse herbicidal test, pre- and post-emergence (Table B1)
Type in all cases: in vivo
[1] = test system: Amaranthus retoflexus (AMARE); conditions: 130 g/h, evaluated after 13 days; for percentage damage caused to the plant, POST Application AMARE: post-emergence; for percentage damage caused to the plant, PRE Application AMARE: pre-emergence
Protocol: (§1) Seeds of a variety of test species are sown in standard soil in pots (Lolium perenne (LOLPE), Amaranthus retoflexus (AMARE), Amaranthus palmeri (AMAPA), Ablution theophrasti (ABUTH), Setaria faberi (SETFA), Echinochloa crus-galli (ECHCG), Ipomoea hederacea (IPOHE)). After cultivation for one day (pre-emergence) or after 8 days cultivation (post-emergence) under controlled conditions in a glasshouse (at 24/16° C., day/night; 14 hours light; 65% humidity), the plants are sprayed with an aqueous spray solution derived from the formulation of the technical active ingredient in acetone/water (50:50) solution containing 0.5% Tween 20 (polyoxyethelyene sorbitan monolaurate, CAS RN 9005-64-5). Compounds are applied at 130 g/h unless otherwise indicated. The test plants are then grown in a glasshouse under controlled conditions in a glasshouse (at 24/16° C., day/night; 14 hours light; 65% humidity) and watered twice daily. After 13 days for pre and post-emergence, the test is evaluated for the percentage damage caused to the plant. The biological activities are shown in the following table on a five-point scale (5=80-100%; 4=60-79%; 3=40-59%; 2=20-39%; 1=0-19%).

[2] = test system: Echinochloa crus-galli (ECHCG); conditions: 130 g/h, evaluated after 13 days; for percentage damage caused to the plant, POST Application ECHCG: post-emergence; for percentage damage caused to the plant, PRE Application ECHCG: pre-emergence
Protocol: as §1

[3] = test system: Ipomoea hederacea (IPOHE); conditions: 130 g/h, evaluated after 13 days; for percentage damage caused to the plant, POST Application IPOHE: post-emergence; for percentage damage caused to the plant, PRE Application IPOHE: pre-emergence
Protocol: as §1

[4] = test system: Ablution theophrasti (ABUTH); conditions: 130 g/h, evaluated after 13 days; for percentage damage caused to the plant, POST Application ABUTH: post-emergence; for percentage damage caused to the plant, PRE Application ABUTH: pre-emergence
Protocol: as §1

[5] = test system: Setaria faberi (SETFA); conditions: 130 g/h, evaluated after 13 days; for percentage damage caused to the plant, POST Application SETFA: post-emergence; for percentage damage caused to the plant, PRE Application SETFA: pre-emergence
Protocol: as §1

[6] = test system: Amaranthus palmeri (AMAPA); conditions: 130 g/h, evaluated after 13 days; for percentage damage caused to the plant, POST Application AMAPA: post-emergence; for percentage damage caused to the plant, PRE Application AMAPA: pre-emergence
Protocol: as §1

Row | SMILES | percentage damage caused to the plant, POST Application AMARE [1] | percentage damage caused to the plant, PRE Application AMARE [1] | percentage damage caused to the plant, POST Application ECHCG [2] | percentage damage caused to the plant, PRE Application ECHCG [2] | percentage damage caused to the plant, POST Application IPOHE [3] | percentage damage caused to the plant, PRE Application IPOHE [3] | percentage damage caused to the plant, POST Application ABUTH [4] | percentage damage caused to the plant, PRE Application ABUTH [4] | percentage damage caused to the plant, POST Application SETFA [5] | percentage damage caused to the plant, PRE Application SETFA [5] | percentage damage caused to the plant, POST Application AMAPA [6] | percentage damage caused to the plant, PRE Application AMAPA [6]
1 | CCn1nnnc1NC(=O)c1ccc(OC(F)(F)F)c(NS(C)(=O)=O)c1Cl [Compound 1.001] | 4 (4=60-79%) | 5 (5=80-100%) | 5 (5=80-100%) | 5 (5=80-100%) | 5 (5=80-100%) | 4 (4=60-79%) | 5 (5=80-100%) | 5 (5=80-100%) | 5 (5=80-100%) | 3 (3=40-59%) | – | –
2 | CCn1nnnc1NC(=O)c1ccc(OC(F)(F)F)c(NS(=O)(=O)CC)c1Cl [Compound 1.002, 2-chloro-3-(ethylsulfonylamino)-N-(1-ethyltetrazol-5-yl)-4-(trifluoromethoxy)benzamide] | 5 (5=80-100%) | 5 (5=80-100%) | 5 (5=80-100%) | 5 (5=80-100%) | 4 (4=60-79%) | 5 (5=80-100%) | 5 (5=80-100%) | 5 (5=80-100%) | 5 (5=80-100%) | 5 (5=80-100%) | – | –
3 | CCS(=O)(=O)Nc1c(OC(F)(F)F)ccc(C(=O)Nc2nnnn2C)c1Cl [Compound 1.003, 2-chloro-3-(ethylsulfonylamino)-N-(1-methyltetrazol-5-yl)-4-(trifluoromethoxy)benzamide] | 4 (4=60-79%) | 5 (5=80-100%) | 5 (5=80-100%) | 5 (5=80-100%) | 5 (5=80-100%) | 4 (4=60-79%) | 5 (5=80-100%) | 5 (5=80-100%) | 5 (5=80-100%) | 4 (4=60-79%) | – | –
4 | Cn1nnnc1NC(=O)c1ccc(OC(F)(F)F)c(NS(C)(=O)=O)c1Cl [Compound 1.004] | 5 (5=80-100%) | 5 (5=80-100%) | 5 (5=80-100%) | 5 (5=80-100%) | 4 (4=60-79%) | 3 (3=40-59%) | 5 (5=80-100%) | 5 (5=80-100%) | 5 (5=80-100%) | 5 (5=80-100%) | – | –
5 | CC(C)S(=O)(=O)Nc1c(OC(F)F)ccc(C(=O)Nc2nnnn2C)c1Cl [Compound 1.013] | 5 (5=80-100%) | 5 (5=80-100%) | 5 (5=80-100%) | 5 (5=80-100%) | 5 (5=80-100%) | 5 (5=80-100%) | 5 (5=80-100%) | 5 (5=80-100%) | 5 (5=80-100%) | 4 (4=60-79%) | – | –
6 | CCn1nnnc1NC(=O)c1ccc(OC(F)F)c(NS(C)(=O)=O)c1Cl [Compound 1.059] | 5 (5=80-100%) | 5 (5=80-100%) | 5 (5=80-100%) | 5 (5=80-100%) | 5 (5=80-100%) | 2 (2=20-39%) | 5 (5=80-100%) | 5 (5=80-100%) | 5 (5=80-100%) | 4 (4=60-79%) | – | –
7 | CCS(=O)(=O)Nc1c(OC(F)F)ccc(C(=O)Nc2nnnn2C)c1Cl [Compound 1.064] | 5 (5=80-100%) | 5 (5=80-100%) | 5 (5=80-100%) | 5 (5=80-100%) | 4 (4=60-79%) | 2 (2=20-39%) | 5 (5=80-100%) | 5 (5=80-100%) | 5 (5=80-100%) | 4 (4=60-79%) | 5 (5=80-100%) | 5 (5=80-100%)
8 | Cn1nnnc1NC(=O)c1ccc(OC(F)F)c(NS(C)(=O)=O)c1Cl [Compound 1.065] | 5 (5=80-100%) | 5 (5=80-100%) | – | 4 (4=60-79%) | 4 (4=60-79%) | 2 (2=20-39%) | – | 5 (5=80-100%) | 5 (5=80-100%) | 3 (3=40-59%) | – | –
9 | Cn1nnnc1NC(=O)c1ccc(OC(F)F)c(NS(=O)(=O)C2CC2)c1Cl [Compound 1.067] | 4 (4=60-79%) | 5 (5=80-100%) | 5 (5=80-100%) | 4 (4=60-79%) | 5 (5=80-100%) | 4 (4=60-79%) | 5 (5=80-100%) | 5 (5=80-100%) | 5 (5=80-100%) | 3 (3=40-59%) | – | –
10 | CCS(=O)(=O)N(C)c1c(OC(F)(F)F)ccc(C(=O)Nc2nnnn2C)c1Cl [Compound 1.080] | 5 (5=80-100%) | 5 (5=80-100%) | 5 (5=80-100%) | 5 (5=80-100%) | 5 (5=80-100%) | 5 (5=80-100%) | – | – | 5 (5=80-100%) | 5 (5=80-100%) | 5 (5=80-100%) | 5 (5=80-100%)
11 | CCS(=O)(=O)Nc1c(OC(F)(F)C(F)F)ccc(C(=O)Nc2nnnn2C)c1Cl [Compound 1.086] | 5 (5=80-100%) | 5 (5=80-100%) | 5 (5=80-100%) | 5 (5=80-100%) | 5 (5=80-100%) | 2 (2=20-39%) | – | – | 5 (5=80-100%) | 4 (4=60-79%) | 5 (5=80-100%) | 5 (5=80-100%)
12 | CCS(=O)(=O)N(C)c1c(OC(F)F)ccc(C(=O)Nc2nnnn2C)c1Cl [Compound 1.087] | 5 (5=80-100%) | 5 (5=80-100%) | 5 (5=80-100%) | 5 (5=80-100%) | 4 (4=60-79%) | 5 (5=80-100%) | – | – | 5 (5=80-100%) | 5 (5=80-100%) | 5 (5=80-100%) | 5 (5=80-100%)
